Values of other authors as cited in patent US20250268985A1, “BCL2 INHIBITOR AND PEPTIDE COMBINATION THERAPY FOR TREATING PROLIFERATIVE DISEASES” (IMMUNE SYSTEM KEY LTD., priority 2022, published 2025).

CN(C)CC[C@H](CSc1ccccc1)Nc1ccc(S(=O)(=O)NC(=O)c2ccc(N3CCN(Cc4ccccc4-c4ccc(Cl)cc4)CC3)cc2)cc1[N+](=O)[O-] [ABT-737, 4-{4-[(4′-Chloro[1,1′-biphenyl]-2-yl)methyl]piperazin-1-yl}-N-(4-{[(2R)-4-(dimethylamino)-1-(phenylsulfanyl)butan-2-yl]ami-no}-3-nitrobenzene-1-sulfonyl)benzamide]
bioavailability after oral administration: not bioavailable
